# Results published in patent publication US20250171400A1, “AZA-HETEROCYCLYL CARBOXAMIDE AND RELATED COMPOUNDS AND THEIR USE IN TREATING MEDICAL CONDITIONS” (X-BIOTIX THERAPEUTICS, INC., priority 2021, published 2025).
# Where two headings read alike, the source gives them in different places.
# Key:
# [1] = target: E. coli LpxC (Escherichia coli (strain K12), UniProt P0A725); experiment: in vitro substrate deacetylation assay for inhibition of LpxC (ADDA analysis); assay type: biochemical; details: 5 nM E. coli LpxC, 2.5 μM substrate, 1 hour at room temperature
# Procedure: (§1) Exemplary compounds from the above Examples were tested for ability to inhibit LpxC activity using an in vitro substrate deacetylation assay with ADDA™ analysis. Assay procedures and results are described below.
# Dilutions of test compound were pre-incubated with 5 nM P. aeruginosa or E. coli LpxC for 10 minutes at room temperature in 50 mM NaH2PO4, 500 mM sucrose, 0.2 mg/mL BSA, pH 7.2 and <1% DMSO. Reactions were initiated by the addition of 2× substrate (UDP-3-O—(R-3-hydroxydecanoyl)-N-acetylglucosamine, Carbosynth Ltd, UK, for P. aeruginosa LpxC and UDP-3-O—(R-3-hydroxymyristoyl)-N-acetylglucosamine, BOC Sciences, USA, for E. coli LpxC), in 50 mM NaH2PO4, 0.5 mg/mL BSA, pH 7.2, to a final concentration of 2.5 μM. Reactions proceeded for 1 hour at room temperature prior to quenching with and equal volume of 2% acetic acid.
# For ADDA™ analysis, an aliquot of assay sample was withdrawn from each well of the 384-well plate and applied to a Hypercarb cartridge (Optimize Technologies, USA) under conditions designed to retain analytes of interest. Analytes were eluted using 1:1:2 acetone:acetonitrile:water containing 5 mM ammonium acetate then analysed by triple-quadrupole mass spectrometry. Mass spectrometry was carried out using electrospray ionization in negative ion mode. Daughter ion peaks representing detected substrate (P. aeruginosa: parent Q1 mass=775.8 amu, daughter Q3 mass=384.7 amu E. coli: parent Q1 mass=833.0 amu, daughter Q3 mass=385.0 amu, collision energy=analyte specific, dwell time=50 ms) were identified using a multiple-reaction monitoring protocol.
# Total activity (0% inhibition) was obtained from reactions containing no compound, and 100% inhibition is defined as reactions in the presence of 1 μM CHIR-090 (N-[(1S,2R)-2-hydroxy-1-[(hydroxyamino)carbonyl]propyl]-4-[2-[4-(4-morpholinylmethyl)phenyl]ethynyl]-benzamide). For IC50 determinations, peak areas of the substrate and product were compared to compute the proportion of substrate reacted by the LpxC enzyme at each compound concentration. The fractional activity was converted to percentage inhibition and plotted against compound concentration in ActivityBase™ and fit using a four-parameter logistic using non-linear regression to yield the IC50 value.
# [2] = target: P. aeruginosa LpxC (Pseudomonas aeruginosa (strain ATCC 15692 / DSM 22644 / CIP 104116 / JCM 14847 / LMG 12228 / 1C / PRS 101 / PAO1), UniProt P47205); experiment: biochemical; assay type: biochemical; details: 5 nM P. aeruginosa LpxC, 2.5 μM substrate, 1 hour at room temperature
# Procedure: as §1
# For ADDA™ analysis, an aliquot of assay sample was withdrawn from each well of the 384-well plate and applied to a Hypercarb cartridge (Optimize Technologies, USA) under conditions designed to retain analytes of interest. Analytes were eluted using 1:1:2 acetone:acetonitrile:water containing 5 mM ammonium acetate then analysed by triple-quadrupole mass spectrometry. Mass spectrometry was carried out using electrospray ionization in negative ion mode.
# For IC50 determinations, peak areas of the substrate and product were compared to compute the proportion of substrate reacted by the LpxC enzyme at each compound concentration.
# [3] = system: E. coli BW25113 isogenic mutant deficient in acrA mediated efflux; experiment: broth microdilution minimum inhibition concentration assay; assay type: cell-based; details: Escherichia coli, BW25113, read-out: E. coli KO MIC
# Procedure: (§2) Exemplary compounds from the above Examples were tested to determine their minimum inhibitory concentration (MIC) for exemplary strains of Eschericia and Pseudomonas bacteria using broth microdilution methods. Assay procedures and results are described below.
# (§3) Broth microdilution assays were conducted according to Clinical and Laboratory Standards Institute guidelines (CLSI, M07-A11: Clinical and Laboratory Standards Institute. Methods for Dilution Antimicrobial Susceptibility Tests for Bacteria that Grow Aerobically; Approved Standard—11th Edition. Wayne, PA: CLSI, 2018.). Briefly, a 0.5 McFarland standard suspension was made from bacterial isolates on non-selective, solid media. The inocula were adjusted to give a bacterial concentration of 1×10^6 CFU/mL. Serial doubling-dilutions of each compound were prepared in cation-adjusted Mueller-Hinton broth (Sigma-Aldrich) in 96-well microdilution plates. A 50 μL aliquot of the inoculum was added to each microdilution plate and, within 15 minutes, incubated at 37° C. in air for 16-20 h. […] The test was controlled by the determination of piperacillin MIC against both E. coli ATCC 25922 and P. aeruginosa ATCC 27853 and ensuring accordance with the ranges published in CLSI supplementary document M100 (CLSI, M100Ed29: Clinical and Laboratory Standards Institute. Performance Standards for Antimicrobial Susceptibility Testing, 29th Edition. Wayne, PA: CLSI, 2018.).
# (§4) Multiple enterobacteriaceae strains were tested, including E. coli ATCC 25922 and K. pneumoniae ATCC 43816. WT E. coli BW25113 was tested with an isogenic mutant deficient in acrA mediated efflux by clean deletion. WT P. aeruginosa PAO1 was tested with an isogenic mutant deficient in MexA mediated efflux by clean deletion.
# (§5) Experimental results are provided in Table 4, which provides MIC values for wild-type E. coli BW25113 (“E. coli WT MIC”), an isogenic mutant deficient in acrA mediated efflux by clean deletion (“E. coli KO MIC”), wild-type P. aeruginosa PAO1 (“P. aeruginosa WT MIC”), and an isogenic mutant deficient in MexA mediated efflux by clean deletion (“[…]”).
# [4] = system: P. aeruginosa PAO1 isogenic mutant deficient in MexA mediated efflux; experiment: as above; assay type: cell-based; details: Pseudomonas aeruginosa, PAO1, read-out: P. aeruginosa KO MIC
# Procedure: as §2, §3, §4, §5
# [5] = system: wild-type E. coli BW25113; experiment: as above; assay type: cell-based; details: Escherichia coli; wild-type E. coli BW25113, 37° C. 16-20 h; read-out: E. coli WT MIC
# Procedure: as §2, §3, §4, §5
# [6] = system: wild-type P. aeruginosa PAO1; experiment: as above; assay type: cell-based; details: Pseudomonas aeruginosa
# Procedure: as §2, §3, §4, §5
# [7] = PAO1, read-out: P. aeruginosa WT MIC
# [8] = wild-type P. aeruginosa PAO1, 37° C. 16-20 h, read-out: P. aeruginosa WT MIC
# Chain of E. coli LpxC (P0A725 whole entry): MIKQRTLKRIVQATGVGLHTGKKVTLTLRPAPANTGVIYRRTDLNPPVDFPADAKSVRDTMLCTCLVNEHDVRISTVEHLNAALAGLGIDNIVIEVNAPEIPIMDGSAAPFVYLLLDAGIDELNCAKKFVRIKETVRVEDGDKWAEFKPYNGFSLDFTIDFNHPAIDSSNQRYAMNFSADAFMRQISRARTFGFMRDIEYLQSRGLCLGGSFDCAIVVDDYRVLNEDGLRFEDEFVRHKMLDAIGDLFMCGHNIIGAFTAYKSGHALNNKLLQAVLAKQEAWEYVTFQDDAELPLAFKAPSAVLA
Structure (SMILES),IC50 [1] [µM],IC50 [2] [µM],MIC [3] [µM],MIC [4] [µM],MIC [5] [µM],"MIC [6, 7] [µM]","MIC [6, 8] [µM]"
C[C@@H](CN)C(=O)N1C[C@H](NC(=O)[C@@H]2C[C@H](F)CN2)C[C@@H]1C(=O)NCc1ccc(C#CC#CC2CC2)cc1 [Example 9S],0.5 to 2.5,0.05 to 0.1,> 100,> 100,> 100,> 100,–
NC1CN(C(=O)N2C[C@H](NC(=O)[C@@H]3C[C@H](F)CN3)C[C@@H]2C(=O)NCc2ccc(C#CC#CC3CC3)cc2)C1 [Example 9X],0.5 to 2.5,< 0.05,20 to 100,< 20,> 100,–,> 100
"O=C(NC[C@H]1C[C@@H](NC(=O)[C@@H]2C[C@H](F)CN2)CN1C(=O)C1CC1)c1ccc(C#Cc2ccc(CN3CCOCC3)cc2)cc1Cl [Example 6, (2S,4S)—N-((3R,5R)-5-((2-Chloro-4-((4-(morpholinomethyl)phenyl)ethynyl)benzamido)methyl)-1-(cyclopropanecarbonyl)pyrrolidin-3-yl)-4-fluoropyrrolidine-2-carboxamide]",< 0.5,0.05 to 0.1,< 20,< 20,< 20,> 100,–
CC(C)C(=O)N1C[C@H](NC(=O)[C@@H]2C[C@@H](O)CN2)C[C@@H]1C(=O)NCc1ccc(C#CC#CC2CC2)cc1 [Example 9Z],–,–,20 to 100,20 to 100,> 100,> 100,–
O=C(N[C@@H]1C[C@H](C(=O)NCc2ccc(C#CC#CC3CC3)cc2)N(C(=O)C2CCNCC2)C1)[C@@H]1C[C@H](F)CN1 [Example 9P],2.5 to 10,0.1 to 1,> 100,> 100,> 100,> 100,–
O=C(NC[C@H]1C[C@@H](NC(=O)[C@@H]2C[C@H](F)CN2)CN1C(=O)C1CC1)c1ccc(C#Cc2ccc(CN3CCOCC3)cc2)cc1 [Example 9AS],< 0.5,< 0.05,< 20,< 20,< 20,–,> 100
"Cc1cc(C#Cc2ccc(CN3CCOCC3)cc2)ccc1C(=O)NC[C@H]1C[C@@H](NC(=O)[C@@H]2C[C@H](F)CN2)CN1C(=O)C1CC1 [Example 7, (2S,4S)—N-((3R,5R)-1-(Cyclopropanecarbonyl)-5-((2-methyl-4-((4-(morpholinomethyl)phenyl)ethynyl)benzamido)methyl)pyrrolidin-3-yl)-4-fluoropyrrolidine-2-carboxamide]",< 0.5,0.05 to 0.1,< 20,< 20,< 20,> 100,–
O=C(O)CCN1C[C@H](NC(=O)[C@@H]2C[C@H](F)CN2)C[C@@H]1C(=O)NCc1ccc(C#CC#CC2CC2)cc1 [Example 9AO],2.5 to 10,0.1 to 1,> 100,> 100,> 100,> 100,–
CS(=O)(=O)CCN1C[C@H](NC(=O)[C@@H]2C[C@H](F)CN2)C[C@@H]1C(=O)NCc1ccc(C#CC#CC2CC2)cc1 [Example 9AP],0.5 to 2.5,0.1 to 1,> 100,> 100,> 100,> 100,–
